Assay results taken from US6955908B1, “Organism associated with nongonococcal urethritis” (priority 2000, dated 2005).

Key:
[1] = test system: Chlamydia; conditions: single dose (Martin); cited from earlier work
[2] = cited from earlier work
[3] = test system: Ureaplasma; conditions: Stamm and colleagues; cited from earlier work
[4] = test system: SPR (Spiky Rotating Cells); assay: Treatment of patients with SPR infection; format: in vivo, human; conditions: oral treatment of patients
From the text: My discovery of the novel SPR organism also provides for the treatment of SPR infections in male and female patients. The method involves first diagnosing the SPR infection, and then, upon obtaining a positive diagnosis, administering to the patient an SPR-inhibiting amount of an anti-SPR agent selected from the group consisting of itraconazole, ofloxacin, metronidazole.
One such drug is itraconazole, sold under the trade name SPORANOX®, available from Jansen Pharmaceuticals. The patient ingests one 200 mg tablet per day for three-four weeks.
The patient takes 500 mg twice per day for six weeks.
Yet another drug that is effective in treating SPR infection is ofloxacin, sold under the trade name FLOXIN®. The patient takes 400 mg twice per day for two weeks.

CC[C@H]1OC(=O)[C@H](C)[C@@H](O[C@H]2C[C@@](C)(OC)[C@@H](O)[C@H](C)O2)[C@H](C)[C@@H](O[C@@H]2O[C@H](C)C[C@H](N(C)C)[C@H]2O)[C@](C)(O)C[C@@H](C)CN(C)[C@H](C)[C@@H](O)[C@]1(C)O [Azithromycin]
efficacy in uncomplicated chlamydial urethritis compared with Doxycycline [1]: comparable to Doxycycline
cases of NGU cured ([2]; Stamm and colleagues): 78%
overall effectiveness in NGU compared with Doxycycline ([2]; Stamm and colleagues): overall as effective as Doxycyline
Ureaplasma cases that responded [3]: 47%

Cc1ncc([N+](=O)[O-])n1CCO [metronidazole]
effectiveness in treating infection with SPR [4]: can be used to treat SPR infection
clinical efficacy in refractory cases ([2]; refractory cases, smaller series (Toth)): good clinical efficacy
